Source: US20230041563A1, “N-(1,3,4-OXADIAZOL-2-YL)ARYLCARBOXAMIDES OR SALTS THEREOF, PREPARATION METHODS, HERBICIDAL COMPOSITIONS AND USES THEREOF” (priority 2018, published 2023)

Columns and labels:
Test in all cases: Weeding effect in post-emergence stage (greenhouse pot spray)
Type in all cases: in vivo
[1] = test system: Echinochloa crusgalli; conditions: for Echinochloa crusgah (activity level): Table 2, dose 500 g a.i./ha
Summary of the method: (§1)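 Greenhouse pot plants at the 2–3 leaf stage (2 weeks after sowing) were sprayed with compound in acetone with Tween 80 and methyl oleate EC synergist (1.5 L/ha) at 500, 250, 125, 60 or 15 g a.i./ha. Fresh-weight growth control was scored 3 weeks later, averaged over three replicates.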

[2] = test system: Digitaria sanguinalis; conditions: for Digitaria sanguinalis (activity level): Table 2, dose 500 g a.i./ha
Summary of the method: as §1

[3] = test system: Abutilon theophrasti; conditions: Table 2, dose 500 g a.i./ha
Summary of the method: as §1

[4] = test system: Setaria viridis; conditions: Table 3, dose 250 g a.i./ha
Summary of the method: as §1

[5] = test system: Stellaria media; conditions: Table 2, dose 500 g a.i./ha
From the text: (§2) The activity level criteria for plant damage (i.e., growth control rate) are as follows:
(§3) The above growth control rates are fresh weight control rates.
(§4) Experiment on weeding effect in post-emergence stage: monocotyledonous and dicotyledonous weed seeds (Descurainia sophia, Capsella bursa-pastoris, Abutilon theophrasti, Galium aparine, Stellaria media, Lithospermum arvense, rorippa indica, Alopecurus aequalis, Beckmannia syzigachne, Sclerochloa dura, Phleum paniculatum, Bromus japonicus, Aegilops tauschii, Phalaris arundinacea, Amaranthus retroflexus, Chenopodiaceae, Commelina communis, Sonchus arvensis, convolvulus arvensis, Cirsium setosum, Solanum nigrum, Acalypha australis, Digitaria sanguinalis, Echinochloa crusgalli, Setaria viridis, Setaria glauca, Leptochloa chinensis, Monochoria vaginalis, Sagittaria trifolia, Scirpus juncoides, Cyperus rotundus, Cyperus iria, Cyperus difformis, Fimbristylis, Portulaca oleracea, Xanthium sibiricum, Pharbitis nil) and major crop seeds (wheat, corn, rice, soybean, cotton, oilseed rape, millet, sorghum, potato, sesame, ricinus) were placed in plastic pots filled with soil, then covered with 0.5-2 cm of soil, allowed to grow in a good greenhouse environment. After 2 weeks of sowing, the test plants were treated in the 2 to 3 leaf stage. The tested compounds of the present invention were respectively dissolved in acetone, then added with Tween 80 and 1.5 liter/ha of emulsifiable concentrate of methyl oleate as synergist, diluted with a certain amount of water to obtain a solution with a certain concentration, and sprayed with a spray tower onto the plants. After the application, the plants were cultured for 3 weeks in the greenhouse, and then the experimental results of the weeding were counted. The doses of the used compounds were 500, 250, 125, 60, 15 g a.i./ha, and the averages were obtained by repeating for three times.

[6] = test system: Amaranthus retroflexus; conditions: Table 2, dose 500 g a.i./ha
From the text: as §2, §3, §4

| Compound | Echinochloa crusgah (activity level) [1] | Echinochloa crusgali (activity level) ([1]; Table 3, dose 250 g a.i./ha) | Digitaria sanguinalis (activity level) [2] | Digitaria sanguinahs (activity level) ([2]; Table 3, dose 250 g a.i./ha) | Abutilion theophrasti (activity level) [3] | Setaria viridis (activity level) [4] | Stellaria media (activity level) [5] | Amaranthus retroflexus (activity level) [6] |
| --- | --- | --- | --- | --- | --- | --- | --- | --- |
| CCSc1c(C(F)(F)F)ccc(C(=O)Nc2nnco2)c1F [Compound 3-4] | 5 (Level 5: growth control rate is above 85%) | 5 (Level 5: growth control rate is above 85%) | 5 (Level 5: growth control rate is above 85%) | 5 (Level 5: growth control rate is above 85%) | 5 (Level 5: growth control rate is above 85%) | 5 (Level 5: growth control rate is above 85%) | 5 (Level 5: growth control rate is above 85%) | 5 (Level 5: growth control rate is above 85%) |
| CC[S+]([O-])c1c(C(F)(F)F)ccc(C(=O)Nc2nnco2)c1F (stereo not shown) [Compound 3-5] | 5 (Level 5: growth control rate is above 85%) |  | 5 (Level 5: growth control rate is above 85%) |  | 5 (Level 5: growth control rate is above 85%) |  | 5 (Level 5: growth control rate is above 85%) | 5 (Level 5: growth control rate is above 85%) |
| CCC[S+]([O-])c1c(C(F)(F)F)ccc(C(=O)Nc2nnco2)c1F (stereo not shown) [Compound 3-8] | 5 (Level 5: growth control rate is above 85%) |  | 5 (Level 5: growth control rate is above 85%) |  | 5 (Level 5: growth control rate is above 85%) |  | 5 (Level 5: growth control rate is above 85%) | 5 (Level 5: growth control rate is above 85%) |
| CC(C)[S+]([O-])c1c(C(F)(F)F)ccc(C(=O)Nc2nnco2)c1F (stereo not shown) [Compound 3-11] | 5 (Level 5: growth control rate is above 85%) |  | 5 (Level 5: growth control rate is above 85%) |  | 5 (Level 5: growth control rate is above 85%) |  | 5 (Level 5: growth control rate is above 85%) | 5 (Level 5: growth control rate is above 85%) |
| CCCC[S+]([O-])c1c(C(F)(F)F)ccc(C(=O)Nc2nnco2)c1F (stereo not shown) [Compound 3-14] | 5 (Level 5: growth control rate is above 85%) |  | 5 (Level 5: growth control rate is above 85%) |  | 5 (Level 5: growth control rate is above 85%) |  | 5 (Level 5: growth control rate is above 85%) | 5 (Level 5: growth control rate is above 85%) |
| CCC(C)[S+]([O-])c1c(C(F)(F)F)ccc(C(=O)Nc2nnco2)c1F (stereo not shown) [Compound 3-17] | 5 (Level 5: growth control rate is above 85%) |  | 5 (Level 5: growth control rate is above 85%) |  | 5 (Level 5: growth control rate is above 85%) |  | 5 (Level 5: growth control rate is above 85%) | 5 (Level 5: growth control rate is above 85%) |
| O=C(Nc1nnco1)c1ccc(C(F)(F)F)c([S+]([O-])CCC(F)(F)F)c1F (stereo not shown) [Compound 3-52] | 5 (Level 5: growth control rate is above 85%) |  | 5 (Level 5: growth control rate is above 85%) |  | 5 (Level 5: growth control rate is above 85%) |  | 5 (Level 5: growth control rate is above 85%) | 5 (Level 5: growth control rate is above 85%) |
| COCC[S+]([O-])c1c(C(F)(F)F)ccc(C(=O)Nc2nnco2)c1F (stereo not shown) [Compound 3-57] | 5 (Level 5: growth control rate is above 85%) |  | 5 (Level 5: growth control rate is above 85%) |  | 5 (Level 5: growth control rate is above 85%) |  | 5 (Level 5: growth control rate is above 85%) | 5 (Level 5: growth control rate is above 85%) |
